Columns and labels:
Assay type in all cases: in vivo
wheat [1] = assay: Pre-emergence test, tolerance in wheat
Experimental: (§1) The pre-emergence tests involve spraying a liquid formulation of the compound onto the soil in which the seeds of the plant species mentioned above has recently been sown.
(§2) The soil used in the tests is a prepared horticultural loam. The formulations used in the tests are prepared from solutions of the test compounds in acetone containing 0.4% by weight of an alkylphenol/ethylene oxide condensate available under the trade mark TRITON X-155.
(§3) These acetone solutions are diluted with water and the resulting formulations applied at dosage levels corresponding to 15 g, 30 g, 60 g, 120 g or 240 g of active material per hectare in a volume equivalent to 900 liters per hectare. In these tests untreated sown soil is used as control. The herbicidal effects of the test compounds are assessed visually three weeks after spraying the soil and are recorded an a 0 to 100 scale. A rating 0 indicates growth as untreated control, a rating 100 indicates death. An increase of 10 unit an the linear scale approximates to a 10% increase in the level of effect. The results of the assessment are set out in Tables 1 to 4.

Stellaria media = assay: Pre-emergence test, weed control; details: 3 weeks after treatment, rating 0-100 (100=death), Table 1
Procedure, shortened: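 Herbicidal effect was scored visually on a 0–100 scale (100 = death, 0 = untreated-like) three weeks after treatment. Soil was horticultural loam sprayed just after sowing with aqueous-diluted acetone/0.4% TRITON X-155 formulations at 15–240 g a.i./ha (900 L/ha).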

Alopecurus myosuroides = assay: Pre-emergence test, weed control; details: 3 weeks after treatment, rating 0-100 (100=death), Table 1
Procedure, shortened: (§4)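 Visual 0–100 rating, three weeks after treatment, where 0 equals untreated sown soil and 100 means plant death. Sown horticultural loam received an aqueous dilution of acetone solution (0.4% w/w alkylphenol/ethylene oxide condensate) at 15–240 g/ha, 900 l/ha spray volume.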

Galium aparine = assay: Pre-emergence test, weed control; details: 3 weeks after treatment, rating 0-100 (100=death), Table 1
Procedure, shortened: as §4

Setaria viridis = assay: Pre-emergence test, weed control; details: 3 weeks after treatment, rating 0-100 (100=death), Table 1
Procedure, shortened: as §4

Lolium perenne = assay: Pre-emergence test, weed control; details: 3 weeks after treatment, rating 0-100 (100=death), Table 1
Procedure, shortened: as §4

wheat [2] = assay: Post-emergence test, tolerance in wheat
Experimental: (§5) These acetone solutions are diluted with water and the resulting formulations applied at dosage levels equivalent of about 0.030 to 0.240 kg per hectare of test compound per pot. After spraying the plants are placed an greenhouse benches and are cared for in the usual manner, commensurate with conventional greenhouse practices. From 2 to 4 weeks after treatment, the seedling plants are examined and rated according to the rating system provided above. A rating 0 indicates growth as untreated control, a rating 100 indicates death.

barley = assay: Pre-emergence test, tolerance in barley
Experimental: as §1, §2, §3

[3] = system: grasses and broadleaf weeds; assay: Post-emergence test, overall weed control
Experimental: as §5

Row | SMILES | STEME weed control rating (Stellaria media; 0.015 kg/ha) | STEME weed control rating (Stellaria media; 0.030 kg/ha) | STEME weed control rating (Stellaria media; 0.060 kg/ha) | STEME weed control rating (Stellaria media; 0.120 kg/ha) | STEME weed control rating (Stellaria media; 0.240 kg/ha) | ALOMY weed control rating (Alopecurus myosuroides; 0.015 kg/ha) | ALOMY weed control rating (Alopecurus myosuroides; 0.030 kg/ha) | ALOMY weed control rating (Alopecurus myosuroides; 0.060 kg/ha) | ALOMY weed control rating (Alopecurus myosuroides; 0.120 kg/ha) | ALOMY weed control rating (Alopecurus myosuroides; 0.240 kg/ha) | GALAP weed control rating (Galium aparine; 0.015 kg/ha) | GALAP weed control rating (Galium aparine; 0.060 kg/ha) | GALAP weed control rating (Galium aparine; 0.240 kg/ha) | SETVI weed control rating (Setaria viridis; 0.015 kg/ha) | SETVI weed control rating (Setaria viridis; 0.060 kg/ha) | SETVI weed control rating (Setaria viridis; 0.240 kg/ha) | LOLPE weed control rating (Lolium perenne; 0.015 kg/ha) | LOLPE weed control rating (Lolium perenne; 0.030 kg/ha) | LOLPE weed control rating (Lolium perenne; 0.060 kg/ha) | LOLPE weed control rating (Lolium perenne; 0.240 kg/ha) | also measured
1 | FC(F)(F)c1ccc(-c2nccc(Oc3cccc(C(F)(F)F)c3)n2)cc1 [TTP, 4-(3-trifluoromethylphenoxy)-2-(4-trifluoromethyl-phenyl)-pyrimidine] | 99 | 99 | 100 | 100 | 100 | 15 | 50 | 90 | 100 | 100 | 5 | 50 | 93 | 100 | 100 | 100 | 70 | 99 | 99 | 100 | maximum tolerated dose in wheat / dose at which sufficiently selective in wheat (wheat [1]; pre-emergence): 240 g/ha; GALAP weed control rating (Galium aparine; 0.030 kg/ha): 30; GALAP weed control rating (Galium aparine; 0.120 kg/ha): 75; SETVI weed control rating (Setaria viridis; 0.030 kg/ha): 100; SETVI weed control rating (Setaria viridis; 0.120 kg/ha): 100; LOLPE weed control rating (Lolium perenne; 0.120 kg/ha): 99; maximum tolerated dose in wheat / dose at which sufficiently selective in wheat (wheat [2]; post-emergence): 240 g/ha; dose at which sufficiently selective in barley (barley): 15 g/ha
2 | Cc1cnc(-c2ccc(C(F)(F)F)cc2)nc1Oc1cccc(C(F)(F)F)c1 [REF-1] | – | 90 | 100 | – | 100 | 65 | 92 | 100 | – | 100 | 5 | 50 | 95 | 93 | 100 | 100 | 80 | 95 | 99 | 100 | STEME weed control rating (Stellaria media; 0.1 kg/ha): 100; ALOMY weed control rating (Alopecurus myosuroides; 0.1 kg/ha): 100; GALAP weed control rating (Galium aparine; 0.030 kg/ha): 15; GALAP weed control rating (Galium aparine; 0.1 kg/ha): 75; SETVI weed control rating (Setaria viridis; 0.030 kg/ha): 100; SETVI weed control rating (Setaria viridis; 0.1 kg/ha): 100; LOLPE weed control rating (Lolium perenne; 0.1 kg/ha): 100; dose at which sufficiently selective in barley (barley): did not exhibit acceptable tolerance in barley at any dose
3 | CCc1cc(Oc2cccc(C(F)(F)F)c2)nc(-c2ccc(C(F)(F)F)cc2)n1 [REF-3] | 98 | 100 | 100 | 100 | 100 | 55 | 98 | 98 | 100 | 100 | – | 50 | 97 | 100 | 100 | 100 | 90 | 98 | 99 | 100 | maximum tolerated dose in wheat / dose at which sufficiently selective in wheat (wheat [1]; in vivo): 60 g/ha; GALAP weed control rating (Galium aparine; 0.120 kg/ha): 85; SETVI weed control rating (Setaria viridis; 0.030 kg/ha): 100; SETVI weed control rating (Setaria viridis; 0.120 kg/ha): 100; LOLPE weed control rating (Lolium perenne; 0.120 kg/ha): 99; maximum tolerated dose in wheat / dose at which sufficiently selective in wheat (wheat [2]; in vivo): clearly less selective in wheat than TTP; weed control at wheat selective doses [3]: incomplete
4 | Cc1nc(-c2ccc(C(F)(F)F)cc2)nc(Oc2cccc(C(F)(F)F)c2)c1C [REF-2] | 0 | – | 20 | 97 | 100 | 0 | 5 | 15 | 65 | 70 | 0 | 3 | 50 | 65 | 97 | 100 | 5 | 30 | 60 | 97 | GALAP weed control rating (Galium aparine; 0.030 kg/ha): 0; GALAP weed control rating (Galium aparine; 0.120 kg/ha): 5; SETVI weed control rating (Setaria viridis; 0.120 kg/ha): 100; LOLPE weed control rating (Lolium perenne; 0.120 kg/ha): 93; maximum tolerated dose in wheat / dose at which sufficiently selective in wheat (wheat [2]; in vivo): similarly selective in wheat

— patent US7008905B2, “Method of combating undesired plant growth on cereals” (BASF Aktiengesellschaft, priority 2000, dated 2006)
